The values below come from patent publication US20150328310A1, “METHODS AND COMPOSITIONS RELATING TO TREATMENT OF CANCER” (THE PENN STATE RESEARCH FOUNDATION, priority 2012, published 2015).

pEC50: −log10 of the molar value. Like-named read-outs stand apart in the source and are kept apart here.

Assay [1] has as its system SW480 and RKO colon cancer cell lines. The following applies: estimated from the literature, dose used with ISC-4 in FIG. 2, cited from earlier work; for pEC50: read-out: EC50.
For a further assay, the system named is SW480. Nature of the assay: Cell viability assay of ISC-4 combined with approved antitumor agents, SW480. The arrangement: key: uncooperative (−); cooperative (+); synergistic (*); ambiguous (?). Type of assay: cell-based, human. The following applies: ISC-4 (1, 2, or 4 μM) plus therapy at putative EC12.5, EC25, EC50; compared to monoagent activity. As for the experimental part:
(§1) Cell lines are obtained from ATCC and cultured in ATCC-recommended media in a humidified incubator at 5% CO2 and 37° C. For cell viability assays, cells are seeded into 96-well black-walled plates at a concentration of 1×10^5 cells per mL in fresh media and in a volume of 100 μL per well. Cells are allowed to adhere overnight and are treated the next day as indicated. At endpoint, CellTiter-Glo (Promega) assays are performed according to the manufacturer's protocol, and the bioluminescent readout is recorded on an IVIS imaging system (Xenogen).
(§2) The SW480 and RKO human colon cancer cell lines are used for initial profiling based on their heterogeneous oncogenic genetic alterations.
(§3) Combinatorial activities of ISC-4 and each listed drug are compared to monoagent activities of each drug alone by cell viability assays and determined to be uncooperative (−), cooperative (+), synergistic (*), or ambiguous (?).

The test system of the next assay is RKO. The assay is described as follows: Cell viability assay of ISC-4 combined with approved antitumor agents, RKO. Type of assay: cell-based, human. The following applies: ISC-4 (1, 2, or 4 μM) plus therapy at putative EC12.5, EC25, EC50; compared to monoagent activity. Further details: key: uncooperative (−); cooperative (+); synergistic (*); ambiguous (?). As for the experimental part:
as §1, §2, §3

For orientation: EC25 means the point of the concentration-response curve where the effect stands at 25%. In general, pEC50 refers to −log10 of the EC50, conventionally taken in molar units. `O=c1[nH]cc(F)c(=O)[nH]1` [5-FU, 5-fluorouracil]: in assay [1], the EC12.5 was 4.5 µM, the EC25 is 9000 nM and the pEC50 was 4.74. The “Combinatorial effect of ISC-4 with the listed therapy, SW480” value (from here on “Combinatorial effect … SW480”) with SW480 is given as “−”. Besides, the “Combinatorial effect of ISC-4 with the listed therapy, RKO” value (shortened to “Combinatorial effect … RKO”) in the assay with RKO is listed as “−”.

Take `CC(C)C[C@H](NC(=O)[C@H](Cc1ccccc1)NC(=O)c1cnccn1)B(O)O` [Bortezomib]: the “Combinatorial effect … SW480” value with SW480 is on record as “?”. In the assay with RKO, the “Combinatorial effect … RKO” value is “+”.

For the compound `N.N.[Cl][Pt][Cl]` [Cisplatin], in assay [1], the EC12.5 is 1.125 µM, the EC25 was 2250 nM and the pEC50 is 5.35. Moreover, the “Combinatorial effect … SW480” value in the assay with SW480 is recorded as “+”. The “Combinatorial effect … RKO” value in the assay with RKO is listed as “−”.

As to `Nc1nc(Cl)nc2c1ncn2[C@H]1C[C@H](O)[C@@H](CO)O1` [Cladribine], in assay [1], the EC12.5 was 0.025 µM, the EC25 is 50 nM and the negative-log EC50 (pEC50) was 7.00. Further, the “Combinatorial effect … SW480” value with SW480 was “−”. The “Combinatorial effect … RKO” value in the assay on RKO is on record as “−”.

Consider `CC(=O)O[C@@]12CO[C@@H]1C[C@H](O)[C@@]1(C)C(=O)[C@H](O)C3=C(C)[C@@H](OC(=O)[C@H](O)[C@@H](NC(=O)OC(C)(C)C)c4ccccc4)C[C@@](O)([C@@H](OC(=O)c4ccccc4)[C@H]21)C3(C)C` [Docetaxel], for which, in assay [1], the EC12.5 was 2.5 µM, the EC25 was 5000 nM and the pEC50 is 5.00. Also, the “Combinatorial effect … SW480” value in the assay on SW480 is given as “−”. In the assay on RKO, the “Combinatorial effect … RKO” value is listed as “−”.

As to `COc1cccc2c1C(=O)c1c(O)c3c(c(O)c1C2=O)C[C@@](O)(C(=O)CO)C[C@@H]3O[C@H]1C[C@H](N)[C@H](O)[C@H](C)O1` [Doxorubicin], in assay [1], the EC12.5 was 16.25 µM, the EC25 was 32500 nM and the pEC50 is 4.19. Besides, the “Combinatorial effect … SW480” value in the assay with SW480 is recorded as “−”. Besides, the “Combinatorial effect … RKO” value in the assay with RKO is “?”.

Turning to `COc1cc([C@@H]2c3cc4c(cc3[C@@H](O[C@@H]3O[C@@H]5CO[C@@H](C)O[C@H]5[C@H](O)[C@H]3O)[C@H]3COC(=O)[C@H]23)OCO4)cc(OC)c1O` [Etoposide], in assay [1], the EC12.5 is 1.25 µM, the EC25 was 2500 nM and the pEC50 is 5.30. For the same compound, the “Combinatorial effect … SW480” value in the assay with SW480 is on record as “−”. The “Combinatorial effect … RKO” value with RKO is given as “−”.

As for `COc1cc2ncnc(Nc3ccc(F)c(Cl)c3)c2cc1OCCCN1CCOCC1` [Gefitinib], in assay [1], the EC12.5 is 5.75 µM and the EC25 is 11500 nM. Moreover, the “Combinatorial effect … SW480” value with SW480 is “+”. In the assay with RKO, the “Combinatorial effect … RKO” value was “+”.

Take `Nc1ccn([C@@H]2O[C@H](CO)[C@@H](O)C2(F)F)c(=O)n1` [Gemcitabine]: in assay [1], the EC12.5 was 0.5 µM, the concentration for an effect of 25% (EC25) is 1000 nM and the pEC50 is 5.70. Further, the “Combinatorial effect … SW480” value in the assay with SW480 was “−”. Besides, the “Combinatorial effect … RKO” value in the assay on RKO was “+”.

In the case of `CCc1c2c(nc3ccc(OC(=O)N4CCC(N5CCCCC5)CC4)cc13)-c1cc3c(c(=O)n1C2)COC(=O)[C@]3(O)CC` [Irinotecan], in assay [1], the EC12.5 was 3.38 µM, the EC25 was 6750 nM and the pEC50 is 4.89. The “Combinatorial effect … SW480” value with SW480 is recorded as “−”. In addition, in the assay on RKO, the “Combinatorial effect … RKO” value was “−”.

`CS(=O)(=O)CCNCc1ccc(-c2ccc3ncnc(Nc4ccc(OCc5cccc(F)c5)c(Cl)c4)c3c2)o1` [Lapatinib]: in assay [1], the EC12.5 was 1.75 µM, the EC25 is 3500 nM and the pEC50 is 5.15. The “Combinatorial effect … SW480” value in the assay on SW480 is given as “−”. For the same compound, in the assay with RKO, the “Combinatorial effect … RKO” value was “−”.

On to `O=C1[O][Pt]2([NH][C@@H]3CCCC[C@H]3[NH]2)[O]C1=O` [Oxaliplatin], for which, in assay [1], the EC12.5 is 0.075 µM, the EC25 is given as 150 nM and the pEC50 was 6.52. The “Combinatorial effect … SW480” value in the assay on SW480 is “−”. The “Combinatorial effect … RKO” value in the assay with RKO is “−”.

With `CC(=O)O[C@H]1C(=O)[C@@]2(C)[C@H]([C@H](OC(=O)c3ccccc3)[C@]3(O)C[C@H](OC(=O)[C@H](O)[C@@H](NC(=O)c4ccccc4)c4ccccc4)C(C)=C1C3(C)C)[C@]1(OC(C)=O)CO[C@@H]1C[C@@H]2O` [Paclitaxel], in assay [1], the EC12.5 was 0.0025 µM, the EC25 is listed as 5 nM and the pEC50 was 8.00. The “Combinatorial effect … SW480” value in the assay with SW480 was “−”. Moreover, the “Combinatorial effect … RKO” value in the assay with RKO is reported as “−”.

By EC50 is commonly meant the midpoint of the concentration-response curve. For `Nc1nc2[nH]cc(CCc3ccc(C(=O)N[C@@H](CCC(=O)O)C(=O)O)cc3)c2c(=O)[nH]1` [Pemetrexed], in assay [1], the EC12.5 is 0.25 µg/mL, the EC25 is 0.5 µg/mL and the EC50 was 1 µg/mL. Also, the “Combinatorial effect … SW480” value in the assay on SW480 is recorded as “−”. For the same compound, the “Combinatorial effect … RKO” value in the assay on RKO is reported as “−”.

Take `CNC(=O)c1cc(Oc2ccc(NC(=O)Nc3ccc(Cl)c(C(F)(F)F)c3)cc2)ccn1` [Sorafenib]: in assay [1], the EC12.5 is 8 µM, the EC25 is 16000 nM and the pEC50 was 4.49. In addition, in the assay with SW480, the “Combinatorial effect … SW480” value is given as “+”. For the same compound, the “Combinatorial effect … RKO” value in the assay on RKO is reported as “+”.

In the case of `CC[C@]1(O)C[C@H]2CN(CCc3c([nH]c4ccccc34)[C@@](C(=O)OC)(c3cc4c(cc3OC)N(C=O)[C@H]3[C@@](O)(C(=O)OC)[C@H](OC(C)=O)[C@]5(CC)C=CCN6CC[C@]43[C@@H]65)C2)C1` [Vincristine], in assay [1], the EC12.5 is 3.5e-05 µM, the EC25 entry is reported as “.07 nM” and the negative-log EC50 (pEC50) is 9.85. Also, in the assay with SW480, the “Combinatorial effect … SW480” value is “−”. In the assay on RKO, the “Combinatorial effect … RKO” value is listed as “−”.

Turning to Panitumumab, in assay [1], the EC12.5 was 0.75 µg/mL, the EC25 is 1.5 µg/mL and the EC50 is 3 µg/mL. In addition, the “Combinatorial effect … SW480” value in the assay on SW480 was “−”. In the assay on RKO, the “Combinatorial effect … RKO” value is on record as “−”.
